Reference: US20160030367A1, “Methods and Compositions for Preventing Metastasis and for Improving the Survival Time” (INSERM (INSTITUT NATIONAL DE LA SANTÉ ET DE LA RECHERCHE …, priority 2013, published 2016)
Starred links: 1 amine or outer side, 2 acyl side, 3 side chain; linkers in the order of their positions; H or OH if unused. Positions of bridges follow the written chain, without caps; N, C: chain ends. Non-standard residues stand in square brackets, D forms with d. Residues, ends and D or L forms follow the SMILES beside them. Chains are numbered I, II in the order given. Actinocin(9to1) = Cc1c2oc3c(C)ccc(C(=O)[*:1])c3nc-2c(C(=O)[*:2])c(N)c1=O; NMeV = CN[C@H](C(=O)O)C(C)C; Sar = CNCC(=O)O

Experiments:
A375 melanoma cells [1] = test: Invasion assay in Matrigel-coated Boyden chambers; assay type: cell-based; settings: 24 h; for cell invasion, dose dependence: indicated concentrations
Description: (§1) Boyden chambers (8.0-μm pores, Transwell, Corning, Inc.) were coated with 1 mg/ml Matrigel® (BD Biosciences) and were placed into 24-well chambers containing medium supplemented with 10% FCS. The cells were resuspended in FCS-starved medium, loaded into the top chamber. […] Results represent the average of triplicate samples from three independent experiments.

1205Lu melanoma cells [2] = test: Invasion assay in Matrigel-coated Boyden chambers; assay type: cell-based, human; settings: for cell invasion, dose dependence: indicated concentrations
Description: as §1

p53 = test: p53-dependent luciferase reporter assay (PG13-Luc) in melanoma cells; assay type: cell-based; settings: positive control
Description: Melanoma cells were seeded in 24-well dishes, and transient transfections were performed the following day using 2 μl Lipofectamine (Gibco-BRL, Eragny, France) and 0.3 mg of PG13-Luc, a p53-dependent firefly luciferase reporter gene in a 200-ml final volume. pCMVβGal plasmid was cotransfected to control the variability of transfection efficiency in the reporter assays. […] At 24 hours after stimulation, cells were harvested in 50 μl of lysis buffer and soluble extracts assayed for luciferase and β-galactosidase activities. All transfections were repeated several times using different plasmid preparations. Luciferase assays were carried out exactly as described (17).

WM9 melanoma cells = test: Three-dimensional spheroid invasion into collagen; assay type: cell-based
Description: Melanoma spheroids were prepared using the liquid overlay method. Briefly, 500 μL of melanoma cells (20000/ml) were added to a 24-well plate coated with 1.5% agar (Difco, Sparks, Md.). Plates were left to incubate for 72 hours, by which time cells had organized into three-dimensional spheroids. Spheroids were then harvested using a P1000 pipette. The medium was removed and the spheroids were implanted into a gel of bovine collagen I containing MEM (Invitrogen). Normal melanoma medium was overlaid on top of the solidified collagen. After different time, pictures of the invading spheroids were taken using a Zeiss microscope.

A375 melanoma cells [3] = test: Wound healing assay; assay type: cell-based
1205Lu melanoma cells [4] = test: Pulmonary extravasation model in nude mice; settings: cells treated 24 h with 10 mM before tail vein injection; lungs after 24 h
[5] = test system: 1205Lu melanoma cells expressing luciferase; test: Lung metastasis model, bioluminescence, nude mice; assay type: in vivo
Description: 1205Lu cells stably transfected with a vector encoding luciferase cells come from the team of Dr. Tartare-Deckert. A total of 1×10^6/150 μl PBS 1205Lu-Luc cells were injected via the tail vein of nude mice (Harlan Laboratories). […] To perform pulmonary extravasation analysis, 1.5×10^6 1205Lu cells were labelled for 1 h with CellTracker™ Green (Invitrogen) and injected via the tail vein of nude mice.

A375 melanoma cells [6] = test: Migration assay in Boyden chambers; assay type: cell-based; settings: after 24 hours
Text: as §1, with “Inc.)” for “Inc.) were coated with 1 mg/ml Matrigel® (BD Biosciences) and”

MMP-9 = test: Type I collagen substrate zymography, 1205Lu culture media; assay type: cell-based, human
Description: (§2) The culture media from 1205Lu melanoma cells was concentrated in centrifugal filter unit and loaded on 10% SDS-polyacrylamide gels containing 1 mg/ml type I collagen (BD Biosciences). To estimated the protein concentration, 1205Lu melanoma cells were lysed in a buffer containing 1% Triton X-100, 150 mM NaCl, and 20 mM Tris, pH 7.4, supplemented with a protease inhibitor mixture (Complete EDTA-free, Roche Molecular Biochemicals) at 4° C. under agitation for 30 min. Lysates were clarified by brief spinning, and protein concentration was evaluated by bicinchoninic acid technique (BCA protein assay kit, Pierce). Following electrophoresis, proteins were renatured by incubating gels in 2.5% Triton X-100 for 2 h at 37° C. Gels were then washed three times in distilled water and incubated in substrate buffer (50 mM Tris, pH 7.4, and 1 mM CaCl2) at 37° C. for 24 h with gentle shaking Gels were stained with 0.1% Coomassie Blue R-250 (Sigma) and destained in 7% acetic acid. Enzymatic activities appear as cleared bands in a dark background.

MMP-2 = test: as above; assay type: cell-based, human
Description: as §2

1205Lu melanoma cells [7] = test: Wound healing assay; assay type: cell-based, human
melanomas cells = settings: long term treatment of 96 hours; cited from earlier work
[8] = test system: Fibronectin, N-Cadherin, Vimentin, Sparc, Slug and Snail in 1205Lu melanoma cells; test: Western blot of EMT markers; assay type: cell-based, human
Description: (§3) Protein were extracted in buffer containing TRIS-HCl pH7.5 50 mM, NaCl 15 mM, Triton X-100 1% and protease and phosphatase inhibitor 1X. Briefly, cell lysates (30 μg) were separated by SDS-PAGE, transferred onto a PVDF membrane (Millipore, Molsheim, France) and then exposed to the appropriate antibodies. Proteins were visualized with the ECL system from Amersham (Arlington, Heights, Ill., USA). The western blots shown are representative of at least 3 independent experiments.

[9] = test system: melanoma cells freshly isolated from patients; test: Invasion assay in Matrigel-coated Boyden chambers; assay type: cell-based, human; settings: 10 mM, 24 h
Description: Different cancer cell lines were purchased from American Tissue Culture Collection (Molsheim, France). Cells were grown in RPMI 1640 (A375, WM9, SKMel28 and LNCap) or in DMEM medium (1205Lu, Mel501, Mewo and PC3) supplemented with 10% FCS and penicillin/streptomycin (100 U/ml/[…]) at 37° C. and 5% CO2. Patient melanoma cells were prepared as described (13). Briefly, biopsy was dissected and digested for 1-2 h with collagenase A (0.33 U/ml), dispase (0.85 U/ml) and Dnase I (144 U/ml) with rapid shaking at 37° C. Large debris were removed by filtration through a […] cell strainer. Viable cells were obtained by Ficoll gradient centrifugation.
Boyden chambers (8.0-μm pores, Transwell, Corning, Inc.) were coated with 1 mg/ml Matrigel® (BD Biosciences) and were placed into 24-well chambers containing medium supplemented with 10% FCS. The cells were resuspended in FCS-starved medium, loaded into the top chamber. 5 h later, cells adherent to the underside of the filters were fixed with 4% PFA and stained with 0.4% crystal violet, and five random fields at 20× magnification were counted. Results represent the average of triplicate samples from three independent experiments.

total MMP activity = test: Matrix metalloproteinase (MMP) activity measurement, fluorogenic substrate, culture media of 1205Lu cells; assay type: cell-based, human; settings: 10 mM, 24 h
Description: The culture media from stimulated cells were harvested and incubated in a 96-well plate with 0.2 mM of NH2-RA-Dpa-LGLP-AMC as a substrate for various times at 37° C. MMP activity was measured in quadruplicate by quantifying the emission at 460 nm (excitation at 390 nm) in the presence or absence of 10 μM CP471474. The enzyme activities were expressed in arbitrary units per mg of protein.

1205Lu melanoma cells [10] = test: Migration assay in Boyden chambers; assay type: cell-based, human; settings: after 24 hours
Text: as §1, with “Inc.)” for “Inc.) were coated with 1 mg/ml Matrigel® (BD Biosciences) and”

AMPK = test: Western blot in 1205Lu cells infected with Ad AMPK-DN or Ad control; assay type: cell-based, human
Description: Adenoviruses encoding a dominant negative form (Ad AMPK-DN) of subunits α1 and α2 of AMPK were a generous gift of Dr. Foufelle (INSERM, UMR-S 872, Paris, France). An adenovirus of which the expression cassette contains the major late promoter with no exogenous gene was used as control (Ad control). Adenoviruses were propagated in human embryonic kidney 293 cells and stored at −80° C.
as §3

[11] = test system: Slug and N-cadherin in Mewo cells; test: Western blot in Mewo cells infected with Adp53; assay type: cell-based; settings: re-expression of WT p53 by adenovirus infection
Description: as §3

[12] = cells transfected with siRNA against p53

NC(=O)c1ncn([C@@H]2O[C@H](CO)[C@@H](O)[C@H]2O)c1N [AICAR, 5-aminoimidazole-4-carboxamide-1-β-D-ribofuranoside]
cell invasion, dose dependence (A375 melanoma cells [1]): decreases cell invasion in dose dependent manner | cell invasion, dose dependence (1205Lu melanoma cells [2]; 24 h): decreases cell invasion in dose dependent manner

Cc1c2oc3c(C)ccc(C(=O)N[C@@H]4C(=O)N[C@H](C(C)C)C(=O)N5CCC[C@H]5C(=O)N(C)CC(=O)N(C)[C@@H](C(C)C)C(=O)O[C@@H]4C)c3nc-2c(C(=O)N[C@@H]2C(=O)N[C@H](C(C)C)C(=O)N3CCC[C@H]3C(=O)N(C)CC(=O)N(C)[C@@H](C(C)C)C(=O)O[C@@H]2C)c(N)c1=O [Actinomycin D] (I: T[dV]P[Sar][NMeV] / II: T[dV]P[Sar][NMeV]; ester I:1-I:C, II:1-II:C; linker I:N-II:N via Actinocin(9to1))
increase of p53 promoter activity (p53): comparable to metformin 10 mM

CC(C)[C@H](NC(=O)c1ccc2ccccc2n1)C(=O)N[C@@H](CC(=O)O)C(=O)COc1c(F)cccc1F [QVD]
cell invasion into collagen (WM9 melanoma cells; spheroids embedded in collagen): contrary to QVD alone, association of QVD with metformin block invasion

CN(C)C(=N)N=C(N)N [metformin]
cell migration (wound healing) (A375 melanoma cells [3]): Results were confirmed | micro-metastases in the lungs (extravasation) (1205Lu melanoma cells [4]): much more micro-metastases in the lungs than 1205Lu cells treated by metformin | cell invasion, dose dependence (A375 melanoma cells [1]): decreases cell invasion in dose dependent manner | inhibition at 10000 µM (A375 melanoma cells [1]; Homo sapiens, A-375, 10 mM, read-out: inhibition of cell invasion): 90% | cell invasion, dose dependence (1205Lu melanoma cells [2]; 24 h): decreases cell invasion in dose dependent manner | inhibition at 10000 µM (1205Lu melanoma cells [2]; Homo sapiens, 1205Lu, 10 mM, 24 h, read-out: inhibition of cell invasion): 95% | inhibition of invasion (1205Lu melanoma cells [2]; [12]): prevent downregulation of Slug and inhibition of invasion | inhibition of invasion (1205Lu melanoma cells [2]; in presence of dominant negative forms of AMPK): abolished | increase in bioluminescence intensity in lungs of vehicle-treated mice compared to metformin-treated mice ([5]; 7 days after cell injection, intraperitoneal, 2 mg/mouse/day): 3 fold | bioluminescence intensity in lungs ([5]; after 39 day, intraperitoneal, 2 mg/mouse/day): very weak | Slug staining in sections of lung tumors ([5]; immunofluorescent staining, vs vehicle): significant decrease in Slug staining | cell migration (A375 melanoma cells [6]): do not inhibit migration | MMP-9 activity (MMP-9; 5 mM): important diminution | decrease of MMP-9 activity (MMP-9; 10 mM): 45% | MMP-2 activity (MMP-2; 5 mM): important diminution | decrease of MMP-2 activity (MMP-2; 10 mM): 80% | cell migration (wound healing) (1205Lu melanoma cells [7]): Results were confirmed | cell invasion into collagen (WM9 melanoma cells; in presence of apoptosis inhibitor QVD): block invasion | cell invasion into collagen (WM9 melanoma cells; spheroids embedded in collagen): significantly reduced cell invasion into collagen | cell death (melanomas cells): induced cell death of melanomas cells | N-cadherin expression ([8]; 24 h): decrease | SPARC expression ([8]; 24 h): inhibited in a dose dependent manner | Slug level ([8]; 24 h): decrease | Snail level ([8]; 24 h): also decrease | fibronectin expression ([8]; 24 h): decrease | vimentin expression ([8]; 24 h): not modified | N-cadherin expression ([8]; 24 h, listed as Metformin): inhibited in a dose dependent manner | Slug level ([8]; 24 h, listed as Metformin): also decrease | fibronectin expression ([8]; 24 h, listed as Metformin): inhibited in a dose dependent manner | Slug downregulation [8, 12]: prevent downregulation of Slug | cell invasion [9]: significant inhibition of cell invasion | decrease of total MMP activities (total MMP activity): approximately 30% | cell migration (1205Lu melanoma cells [10]): do not inhibit migration | metformin-stimulated phosphorylation of Acetyl-CoA carboxylase (ACC) (AMPK; cells infected by AdAMPK DN α1 and α2): abolished | Slug and SPARC expression (AMPK; cells infected with Ad control): inhibited | Slug and SPARC expression (AMPK; expression of AMPK DN constructs): abrogates these inhibitory effects | decrease in Slug and N-cadherin expressions [11]: restored

[H]/N=C(/N)N/C(=N/[H])NCCc1ccccc1 [phenformin]
cell invasion, dose dependence (A375 melanoma cells [1]): decreases cell invasion in dose dependent manner | cell invasion, dose dependence (1205Lu melanoma cells [2]; 24 h): decreases cell invasion in dose dependent manner

Oc1ccc(/C=C/c2cc(O)cc(O)c2)cc1 [resveratrol, 3,5,4′-trihydroxy-trans-stilbene]
cell invasion, dose dependence (A375 melanoma cells [1]): decreases cell invasion in dose dependent manner | cell invasion, dose dependence (1205Lu melanoma cells [2]; 24 h): decreases cell invasion in dose dependent manner
